Where no end group is shown, it is not given here.
System: NCI-H522 cells (POTE+/HLA-A2)
Test: CTL cytotoxicity against human cancer cells
Format: cell-based
Settings: HHD-2 mice immunized with 50 nmol peptide, restimulated 7 days with 1000 nM peptide; POTE-expressing NCI-H522 human lung cancer cells
Description: FIGS. 8A-8B are graphs showing anti-tumor cytotoxicity induced by enhanced POTE epitopes. AAD mice were immunized s.c. with 50 nmol of peptide in 100 μl of emulsion. (FIG. 8A) Anti-tumor cytotoxicity against a POTE-expressing human lung cancer cell line NCI-H522 induced by POTE 553-1Y, 323-3F and 252-9V. HHD-2 mice were immunized with 50 nmol of peptide in 100 μl of emulsion and restimulated for 7 days with 1000 nM peptide before being tested for ability to lyse the tumor cells. (FIG. 8B) Summary of the anti-tumor cytotoxicity in POTE-expressing and non-POTE-expressing human tumor cells. NCI-H522 is a human lung cancer line expressing both POTE and HLA-A2, whereas HTB-19 is a human mammary carcinoma that expresses POTE but not HLA-A2, and MDA-MB-231 is a human mammary carcinoma cell line expressing HLA-A2 but not POTE.
AAD or HHD-2 mice were immunized subcutaneously (s.c.) in the base of the tail with 100 μl of an emulsion containing 1:1 incomplete Freund's adjuvant (Sigma) and PBS with peptides and cytokines (50 nmol of CTL epitope, 50 nmol of hepatitis B virus core 128-140 helper epitope, 5 μg of mouse interleukin-12, and 5 μg of mouse granulocyte macrophage colony-stimulating factor). Cytokines were purchased from Peprotech (Rocky Hill, N.J.). Mice were boosted 2 weeks later, and the spleens were removed 2 weeks after the boost. For all experiments, groups of three mice were used.
Splenocytes from the immunized mice were re-stimulated with peptide-loaded splenocytes (1 μM, or 10 nM). On day 1 and day 5, rat T STIM™ (BD Bioscience) was added as a source of IL-2. One week later, CTL activity was measured by using a 4-hour ^51Cr releasing assay. […] The percentage of specific ^51Cr release is calculated as 100× [(experimental release-spontaneous release)/(maximum release-spontaneous release)]. Spontaneous release is determined from target cells incubated without effector cells, and maximum release is determined in the presence of 5% triton-X. C1R.AAD or C1R.A2.1 cell lines were used as targets. […]

Row | Sequence | anti-tumor cytotoxicity of peptide-induced CTLs
1 | YILEEIESV [POTE 553-1Y] | produced significant cytotoxicity to lyse NCI-H522 cells
2 | LLFEQNVDV [POTE 323-3F] | produced significant cytotoxicity to lyse NCI-H522 cells
3 | KLMAKALLV [POTE 252-9V] | did not kill POTE-expressing cancer cells
